The text below walks through data of publication PMC5349447, “Applying a high-throughput fluorescence polarization assay for the discovery of chemical probes blocking La:RNA interactions in vitro and in cells” (PLoS ONE, 2017).

One assay concerns SCC 22A cells. Description: Phase contrast microscopy and cisplatin IC50, SCC 22A. The conditions noted are these: C2.01 (50 μM) combined with cisplatin 12 μM. The class given is cell-based, human.
Another assay relates to SCC 22B cells. Description: Cisplatin sensitization, CyQUANT, SCC 22B. The class given is cell-based, human. The note with it: 50 μM C2.01 pretreatment. How it is done:
To test whether compound C2.01 sensitizes cells for cisplatin, cells were treated with 0.2% DMSO alone, cisplatin at 4, 8, 16, 32 or 64 μM concentration alone or in combination with 50 μM compound C2.01. The half maximal inhibitory concentration (IC50) of cisplatin was determined by treating SCC 22B cells with increasing cisplatin (Selleckchem) concentrations or vehicle (DMSO) for 48 h (96-well format) as described recently. For this experiments 1x10^4 SCC 22B cells were plated the day before the experiment. DMSO or C2.01 was added to a final concentration of DMSO (0.05%) and C2.01 (50 μM). Six hours later the different cisplatin concentrations were added. The highest DMSO concentration of 0.25% was used in the control for cisplatin and C2.01 double treatment. Subsequently, cells were washed twice with 1x PBS and quantified after staining with fluorescence dye (CyQUANT®, Life Technologies) 48 after the initial C2.01 treatment.

As for `Cc1ccc(C(=O)c2ccccc2C(=O)O)c(O)c1` [C2.01, 2-(2-hydroxy-4-methylbenzoyl)benzoic acid], the “cell number by phase contrast images” value with SCC 22A cells is listed as “dramatically reduced cell number”. Moreover, the “sensitization of SCC 22B cells for cisplatin treatment” value in the assay with SCC 22B cells was “sensitizes”.
